Our source for the IC50 values is patent publication US11136296B2, “Substituted N-arylethyl-2-arylquinoline-4-carboxamides and use thereof” (Bayer Aktiengesellschaft, priority 2017, dated 2021).

The target of this assay is FP receptor (Homo sapiens (Human), UniProt P43088). In words: In vitro test of inhibition of human FP receptor activity (PGF2α-induced calcium flux in FP-expressing CHEM1 cells). In kind it is cell-based. The settings on record: PGF2α-induced (2 nM) calcium flux in FP-expressing CHEM1 cells; some as mean values from multiple determinations. An excerpt: Table 1 below lists the IC50 values from this assay for individual working examples of the invention (some as mean values from multiple independent individual determinations): […]
Sequence of FP receptor (P43088 whole entry): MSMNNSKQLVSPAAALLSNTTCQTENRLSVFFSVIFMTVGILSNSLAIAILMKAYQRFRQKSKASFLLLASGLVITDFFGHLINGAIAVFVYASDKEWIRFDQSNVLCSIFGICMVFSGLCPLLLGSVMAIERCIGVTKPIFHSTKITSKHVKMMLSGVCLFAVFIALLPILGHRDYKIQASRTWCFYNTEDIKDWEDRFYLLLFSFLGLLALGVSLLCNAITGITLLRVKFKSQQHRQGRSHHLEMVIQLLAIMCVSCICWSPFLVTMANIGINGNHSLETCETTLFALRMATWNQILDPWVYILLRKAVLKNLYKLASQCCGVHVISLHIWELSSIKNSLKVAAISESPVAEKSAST
With `Cc1c(-c2ccccc2)nc2ccc(Br)cc2c1C(=O)NCC(C)(CC(=O)O)c1ncccc1Cl` (single isomer, unassigned; (-)) [Example 85, (−)-4-{[(6-Bromo-3-methyl-2-phenylquinolin-4-yl)carbonyl]amino}-3-(3-chloropyridin-2-yl)-3-methylbutanoic Acid], the IC50 stood at 0.016 µM.
With `Cc1c(-c2ccccc2)nc2ccc(Br)cc2c1C(=O)NCC(CC(=O)O)c1c(F)cccc1Cl` (single isomer, unassigned; (-)) [Example 88, (−)-4-{[(6-Bromo-3-methyl-2-phenylquinolin-4-yl)carbonyl]amino}-3-(2-chloro-6-fluorophenyl)butanoic Acid] the figure was 0.019 µM.
With `Cc1ccc(C(CNC(=O)c2c(C)c(-c3ccccc3)nc3ccc(Br)cc23)CC(=O)O)cc1` (single isomer, unassigned; (-)) [Example 92, (−)-4-{[(6-Bromo-3-methyl-2-phenylquinolin-4-yl)carbonyl]amino}-3-(4-methylphenyl)butanoic Acid], the IC50 came to 0.32 µM.
`Cc1c(-c2ccccc2)nc2ccc(Br)cc2c1C(=O)NCC(CC(=O)O)c1ccccc1OC(F)(F)F` (single isomer, unassigned; (-)) [Example 100, (−)-4-{[(6-Bromo-3-methyl-2-phenylquinolin-4-yl)carbonyl]amino}-3-[2-(trifluoromethoxy)phenyl]butanoic Acid]: the IC50 is 0.02 µM.
On to `Cc1c(-c2ccccc2)nc2ccc(Br)cc2c1C(=O)NCC(CC(=O)O)c1ccccn1` (single isomer, unassigned; (-)) [Example 103, (−)-4-{[(6-Bromo-3-methyl-2-phenylquinolin-4-yl)carbonyl]amino}-3-(pyridin-2-yl)butanoic Acid], for which the IC50 is 0.29 µM.
With `Cc1c(-c2ccccc2)nc2ccc(Br)cc2c1C(=O)NCC(CC(=O)O)c1ccccc1C(F)(F)F` (single isomer, unassigned; (-)) [Example 107, (−)-4-{[(6-Bromo-3-methyl-2-phenylquinolin-4-yl)carbonyl]amino}-3-[2-(trifluoromethyl)phenyl]butanoic Acid] the figure was 0.051 µM.
For `COc1cccnc1C(CNC(=O)c1c(C)c(-c2ccccc2)nc2ccc(Br)cc12)CC(=O)O` (single isomer, unassigned; (-)) [Example 109, (−)-4-{[(6-Bromo-3-methyl-2-phenylquinolin-4-yl)carbonyl]amino}-3-(3-methoxypyridin-2-yl)butanoic Acid], the IC50 came to 0.075 µM.
`Cc1c(-c2ccccc2)nc2ccc(Br)cc2c1C(=O)NCC(C)(CC(=O)O)c1ccccc1F` (single isomer, unassigned; (-)) [Example 116, (−)-4-{[(6-Bromo-3-methyl-2-phenylquinolin-4-yl)carbonyl]amino}-3-(2-fluorophenyl)-3-methylbutanoic Acid]: the IC50 was 0.074 µM.
As to `Cc1c(-c2ccccc2)nc2ccc(Br)cc2c1C(=O)NCC(C)(CC(=O)O)c1ccccn1` (single isomer, unassigned; (-)) [Example 119, (−)-4-{[(6-Bromo-3-methyl-2-phenylquinolin-4-yl)carbonyl]amino}-3-methyl-3-(pyridin-2-yl)butanoic Acid], the IC50 stood at 0.15 µM.
As to `COc1ccccc1C(C)(CNC(=O)c1c(C)c(-c2ccccc2)nc2ccc(Br)cc12)CC(=O)O` (single isomer, unassigned; (-)) [Example 122, (−)-4-{[(6-Bromo-3-methyl-2-phenylquinolin-4-yl)carbonyl]amino}-3-(2-methoxyphenyl)-3-methylbutanoic Acid], the IC50 was determined as 0.46 µM.
On to `COc1ccc(F)cc1C(CNC(=O)c1c(C)c(-c2ccccc2)nc2ccc(Br)cc12)CC(=O)O` (single isomer, unassigned; (-)) [Example 125, (−)-4-{[(6-Bromo-3-methyl-2-phenylquinolin-4-yl)carbonyl]amino}-3-(5-fluoro-2-methoxyphenyl)butanoic Acid], for which the IC50 stood at 0.097 µM.
